pIC50: −log10 of the molar value.
Assays:
[1] = tested on: TNFα production in LPS-stimulated Raw264.7 cells; assay: TNFα production inhibition test; type: cell-based; conditions: Mus musculus, test compound 1 μmol/L, LPS 1 μg/mL, 16 hours, ELISA, read-out: Inhibition rate of TNFα production
Description: 7×10^4 mouse macrophage-derived cell line Raw264.7 cells were suspended in 100 μL of RPMI1640 medium containing 10% fetal bovine serum, plated in a 96-well plate and incubated overnight. The culture supernatant was removed and the test compound diluted in RPMI1640 medium containing 1% fetal bovine serum (final concentration: 1 μmol/L) was added. One hour after the addition, LPS (B4:0111) (Sigma-Aldrich, L2630) was added to a final concentration of 1 μg/mL. 16 hours after the stimulation, the culture supernatant was collected and the amount of TNFα produced in the culture supernatant was determined using ELISA kit (R&D Systems, MTA00B).
The inhibition rate was calculated from the following formula. Inhibition rate (%)=100−(amount of TNFα produced in the presence of test compound/amount of TNFα produced in the absence of test compound)×100

[2] = tested on: normal human neonatal foreskin epidermal keratinocytes (NHEK-F); assay: Cell proliferation inhibition test; type: cell-based; conditions: Keratinocyte, 72 h, NHEK-F cells, three days incubation, ATPlite or CellTiterGlo, read-out: IC50 (concentration of the compound at which the cell count is reduced by 50%)
Summary of the method: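 IC50 is the compound level halving cell count relative to untreated wells, with counts from ATP-based luminescence (ATPlite or CellTiterGlo). Readout followed 3 days of compound exposure of overnight-attached neonatal foreskin keratinocytes (2×10^3/well, Humedia-EG2 medium).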

| Structure (SMILES) | inhibition at 1 µM [1] | pIC50 [2] |
| --- | --- | --- |
| CC(C)(C)c1cc2cc(Nc3ccc(C4CC4)cc3C(=O)O)ccc2[nH]1 [Example 110, 2-((2-(tert-butyl)-1H-indol-5-yl)amino)-5-cyclopropylbenzoic acid] | ≥ 50% | 7.00 to 8.00 |
| O=C(O)c1cc(Cl)ccc1Nc1ccc2c(c1)CCN(Cc1ccccc1)C2=O [Example 265, 2-((2-benzyl-1-oxo-1,2,3,4-tetrahydroisoquinolin-6-yl)amino)-5-chlorobenzoic acid] | ≥ 50% |  |
| NC(=O)c1ccc(-n2ccc3cc(Nc4ccc(C5CC5)cc4C(=O)O)ccc32)cc1 [Example 106-2, 2-((1-(4-Carbamoylphenyl)-1H-indol-5-yl)amino)-5-cyclopropylbenzoic acid] | ≥ 50% |  |
| O=C(O)c1cc(C2CC2)ccc1Nc1ccc2c(ccn2Cc2ccc(N3CCCCC3)cc2)c1 [Example 194, 5-cyclopropyl-2-((1-(4-(piperidin-1-yl)benzyl)-1H-indol-5-yl)amino)benzoic acid] | ≥ 50% | ≥ 8.00 |
| O=C(O)c1cc(Cl)ccc1Nc1ccc2c(ccn2CC2CC2)c1 [Example 96, 5-chloro-2-((1-(cyclopropylmethyl)-1H-indol-5-yl)amino)benzoic acid] | ≥ 50% | 7.00 to 8.00 |
| COc1ccc(-n2ccc3cc(Nc4ccc(C5CC5)cc4C(=O)O)ccc32)cc1 [Example 373, 5-cyclopropyl-2-((1-(4-methoxyphenyl)-1H-indol-5-yl)amino)benzoic acid] | ≥ 50% | ≥ 8.00 |
| O=C(O)c1cc(Cl)ccc1Nc1ccc2c(ccn2-c2ccccc2C(F)(F)F)c1 [Example 337, 5-chloro-2-((1-(2-(trifluoromethyl)phenyl)-1H-indol-5-yl)amino)benzoic acid] | ≥ 50% | ≥ 8.00 |
| O=C(O)c1cc(Cl)ccc1Nc1ccc2c(c1)oc(=O)n2Cc1ccccc1 [Example 61, 2-((3-benzyl-2-oxo-2,3-dihydrobenzo[d]oxazol-6-yl)amino)-5-chlorobenzoic acid] | ≥ 50% | 7.00 to 8.00 |
| Cn1c(=O)n(-c2ccccc2)c2ccc(Nc3ccc(C4CC4)cc3C(=O)O)cc21 [Example 78, 5-cyclopropyl-2-((3-methyl-2-oxo-1-phenyl-2,3-dihydro-1H-benzo[d]imidazol-5-yl)amino)benzoic acid] | ≥ 50% | 7.00 to 8.00 |
| O=C(O)c1cc(C2CC2)ccc1Nc1ccc2c(ccn2-c2cccnc2)c1 [Example 339, 5-cyclopropyl-2-((1-(pyridin-3-yl)-1H-indol-5-yl)amino)benzoic acid] | ≥ 50% | ≥ 8.00 |
| CCCCn1ccc2cc(Nc3ccc(Cl)cc3C(=O)O)ccc21 [Example 255, 2-((1-butyl-1H-indol-5-yl)amino)-5-chlorobenzoic acid] | ≥ 50% | 7.00 to 8.00 |
| O=C(O)c1cc(Cl)cnc1Nc1ccc2c(ccn2Cc2cccc(OCC(F)(F)F)c2)c1 [Example 357, 5-chloro-2-((1-(3-(2,2,2-trifluoroethoxyl)benzyl)-1H-indol-5-yl)amino)nicotinic acid] | ≥ 50% | 7.00 to 8.00 |
| O=C(O)c1cc(Cl)ccc1Nc1ccc2c(ccn2Cc2cccc(OCCO)c2)c1 [Example 300, 5-chloro-2-((1-(3-(2-hydroxyethoxy)benzyl)-1H-indol-5-yl)amino)benzoic acid] | ≥ 50% | 7.00 to 8.00 |
| O=C(O)c1cc(C2CC2)ccc1Nc1ccc2c(ccn2C(=O)c2ccccc2)c1 [Example 202, 2-((1-benzoyl-1H-indol-5-yl)amino)-5-cyclopropylbenzoic acid] | ≥ 50% | ≥ 8.00 |
| O=C(O)c1cc(Cl)cnc1Nc1ccc2c(cnn2Cc2ccccc2)c1 [Example 354, 2-((1-benzyl-1H-indazol-5-yl)amino)-5-chloronicotinic acid] | ≥ 50% | 7.00 to 8.00 |
| O=C(O)c1cc(C2CC2)ccc1Nc1ccc2c(ccn2Cc2ccc(N3CCOCC3)cc2)c1 [Example 196, 5-cyclopropyl-2-((1-(4-morpholinobenzyl)-1H-indol-5-yl)amino)benzoic acid] | ≥ 50% | 7.00 to 8.00 |
| O=C(O)c1cc(Cl)ccc1Nc1ccc2c(c1)[nH]c(=O)n2Cc1ccccc1 [Example 63, 2-((1-benzyl-2-oxo-2,3-dihydro-1H-benzo[d]imidazol-5-yl)amino)-5-chlorobenzoic acid] | ≥ 50% |  |
| O=C(O)c1cc(C2CC2)ccc1Nc1ccc2c(ccn2CC2CC2)c1 [Example 104, 5-cyclopropyl-2-((1-(cyclopropylmethyl)-1H-indol-5-yl)amino)benzoic acid] | ≥ 50% | ≥ 8.00 |
| O=C(O)c1cc(Cl)ccc1Nc1ccc2c(ccn2Cc2cccc(O)c2)c1 [Example 17, 5-chloro-2-((1-(3-hydroxybenzyl)-1H-indol-5-yl)amino)benzoic acid] | ≥ 50% | ≥ 8.00 |
| O=C(O)c1cc(Cl)ccc1Nc1ccc2c(ccn2-c2cccc(C(F)(F)F)c2)c1 [Example 333, 5-chloro-2-((1-(3-(trifluoromethyl)phenyl)-1H-indol-5-yl)amino)benzoic acid] | ≥ 50% | ≥ 8.00 |
| O=C(O)c1cc(Cl)ccc1Nc1ccc2c(ccn2-c2ccccc2)c1 [Example 269, 5-chloro-2-((1-phenyl-1H-indol-5-yl)amino)benzoic acid] | ≥ 50% | ≥ 8.00 |
| O=C(O)c1cc(Cl)ccc1Nc1ccc2c(ccn2Cc2cccc(OC(F)(F)F)c2)c1 [Example 363, 5-chloro-2-((1-(3-(trifluoromethoxy)benzyl)-1H-indol-5-yl)amino)benzoic acid] | ≥ 50% | ≥ 8.00 |
| O=C(O)c1cc(C2CC2)ccc1Nc1ccc2c(c1)sc(=O)n2Cc1ccccc1 [Example 73, 2-((3-benzyl-2-oxo-2,3-dihydrobenzo[d]thiazol-6-yl)amino)-5-cyclopropylbenzoic acid] | ≥ 50% | ≥ 8.00 |
| O=C(O)c1cc(Cl)ccc1Nc1ccc2c(ccn2-c2ccccc2F)c1 [Example 335, 5-chloro-2-((1-(2-fluorophenyl)-1H-indol-5-yl)amino)benzoic acid] | ≥ 50% | ≥ 8.00 |
| O=C(O)c1cc(Cl)ccc1Nc1ccc2c(c1)ncc(=O)n2Cc1ccccc1 [Example 69, 2-((1-benzyl-2-oxo-1,2-dihydroquinoxalin-6-yl)amino)-5-chlorobenzoic acid] | ≥ 50% | 6.00 to 7.00 |
| Cc1ccc(-n2ccc3cc(Nc4ccc(C5CC5)cc4C(=O)O)ccc32)nn1 [Example 102, 5-cyclopropyl-2-((1-(6-methylpyridazin-3-yl)-1H-indol-5-yl)amino)benzoic acid] | ≥ 50% | 7.00 to 8.00 |
| N#Cc1ccc(-n2ccc3cc(Nc4ccc(C5CC5)cc4C(=O)O)ccc32)cc1 [Example 106-1, 2-((1-(4-Cyanophenyl)-1H-indol-5-yl)amino)-5-cyclopropylbenzoic acid] | ≥ 50% |  |
| O=C(O)c1cc(Cl)ccc1Nc1ccc2c(c1)CCC(=O)N2Cc1ccccc1 [Example 267, 2-((1-benzyl-2-oxo-1,2,3,4-tetrahydroquinolin-6-yl)amino)-5-chlorobenzoic acid] | ≥ 50% |  |
| O=C(O)c1cc(C2CC2)ccc1Nc1ccc2c(c1)CN(Cc1ccccc1)C2=O [Example 287, 2-((2-benzyl-1-oxoisoindolin-5-yl)amino)-5-cyclopropylbenzoic acid] | ≥ 50% |  |
